{
  "source": "patent US6268537A",
  "about": "“Method of synthesis of lithium substituted borohydride reagents and method of synthesis of reactive lithium hydride” (priority 1999, dated 2001)",
  "experiment": "solubility of LiH in THF",
  "conditions": "room temperature",
  "data": [
    {"compound": "[H-].[Li+]", "note": "[LiH, lithium hydride]", "values": [
      {"measurement": "solubility of LiH in THF", "result": "less than 0.00089 mol per liter"}
    ]}
  ]
}
